The text below walks through data of patent US8338414B2, “Immunosuppressive agent and anti-tumor agent comprising heterocyclic compound as active ingredient” (Zenyaku Kogyo KabushikiKaisha, priority 2005, dated 2012).

Read-outs that look alike come from different tables or passages of the source.

The subject of one data set is Daudi cells. The data set is described as follows: Proliferation inhibitory activity on hematologic neoplasm cells, Daudi. Format: cell-based. Particulars: Homo sapiens, Daudi, 72 h; 3 days, Alamar Blue.
The subject of another data set is mouse spleen cells. Briefly: Proliferation inhibition assay for mouse spleen cells. The data set is classed as cell-based. Particulars: 72 h, 3 days, Alamar Blue. The method, boiled down:
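C57BL/6N female mouse spleen cells (2×10^6 cells/mL) stimulated with Con A (3 μg/mL), LPS (100 μg/mL) or anti-mouse IgM (100 μg/mL) alongside serially diluted compounds, 3 days at 37° C, 5% CO2. Alamar Blue added for a further day; fluorescence read at ex 530/em 590 nm.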

The next data set concerns U 937 cells. Briefly: Proliferation inhibitory activity on hematologic neoplasm cells, U937. Format: cell-based. Particulars: Homo sapiens, U-937, 72 h; 3 days, Alamar Blue.
For data set [1], the system named is Salmonella typhimurium TA98, TA100, TA1535, TA1537 and Escherichia coli WP2uvrA. Briefly: Ames test. The data set is classed as cell-based. Particulars: preincubation method, with or without S-9, up to 5000 μg/flat plate. The method, then: Using 5 strains of Salmonella typhimurium TA98, TA100, TA1535, TA1537 and Escherichia coli WP2uvrA, the test substances (Compound 4, Compound 19, Compound 22 and Compound 24) were tested for their mutagenesis according to a preincubation method.

For data set [2], the system named is allogeneic mixed lymphocyte reaction. The data set is described as follows: Allogeneic mixed lymphocyte reaction. Format: cell-based, mouse. Particulars: Mus musculus, Lymphocyte; C57BL/6N spleen stimulator cells, BALB/c lymph node responder cells, 86 hours, BrdU. In short, it runs like this:
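Stimulators were C57BL/6N female spleen cells and responders BALB/c female peripheral lymph node mononuclear cells (mice 8-10 weeks old). Cells suspended at 2×10^6 cells/mL in RPMI 1640 with 10% FBS and antibiotics.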

As for `FC(F)c1nc2ccccc2n1-c1nc(N2CCOCC2)nc(N2CCOCC2)n1` [Compound 4, 2-(2-Difluoromethylbenzimidazol-1-yl)-4,6-dimorpholino-1,3,5-triazine], the IC50 in the data set on Daudi cells was 105 nM; in the data set with mouse spleen cells (LPS 100 μg/mL, read-out: Inhibition of LPS response), 1 to 100 nM; in the data set with mouse spleen cells (anti-mouse IgM antibody 100 μg/mL, read-out: Inhibition of Anti-IgM antibody response), 1 to 100 nM; with mouse spleen cells (concanavalin A 3 μg/mL, read-out: Inhibition of Con A response), 1 to 100 nM; with U 937 cells it was 3240 nM; in data set [2] it was 218 nM. For the same compound, the “mutagenesis (colony number of reverse mutation)” value in data set [1] was “negative”.
